From patent US12344600B2, “c-Myc mRNA translation modulators and uses thereof in the treatment of cancer” (Anima Biotech Inc., priority 2022, dated 2025)

system: c-Myc; assay: c-Myc immunofluorescence assay; format: cell-based, human; conditions: A549 cells, 24 hours, anti-c-Myc immunofluorescence
Method in brief: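 Read-out is imaged c-Myc immunofluorescence, nucleus-segmented, in A549 lung carcinoma cells exposed to compound dose series for 24 h after 48 h growth. Fixation 4% paraformaldehyde, Triton permeabilization, antibody staining at room temperature; EC50 from logistic fit of signal versus concentration.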

Structure (SMILES) | Myc Efficacy (−LogEC50)
COc1ccc(-c2noc(N3CCC(C(=O)N[C@H]4CCN(Cc5ccccc5)C4)CC3)n2)cc1 [Compound 316, (S)-N-(1-benzylpyrrolidin-3-yl)-1-(3-(4-methoxyphenyl)-1,2,4-oxadiazol-5-yl)piperidine-4-carboxamide] | + (+ >3 and <5)
COc1ccc(-c2noc(N3CCC(C(=O)NCCc4c[nH]c5cc(C)ccc45)CC3)n2)cc1 [Compound 317, 1-(3-(4-methoxyphenyl)-1,2,4-oxadiazol-5-yl)-N-(2-(6-methyl-1H-indol-3-yl)ethyl)piperidine-4-carboxamide] | ++ (++ ≥5 and <6)
COc1ccc(-c2noc(N3CCC(C(=O)NCc4cnc(C(F)(F)F)s4)CC3)n2)cc1 [Compound 318, 1-(3-(4-methoxyphenyl)-1,2,4-oxadiazol-5-yl)-N-((2-(trifluoromethyl)thiazol-5-yl)methyl)piperidine-4-carboxamide] | + (+ >3 and <5)
COc1ccc(-c2noc(N3CCC(C(=O)Nc4cc(Cl)c(Cl)cn4)CC3)n2)cc1 [Compound 319, N-(4,5-dichloropyridin-2-yl)-1-(3-(4-methoxyphenyl)-1,2,4-oxadiazol-5-yl)piperidine-4-carboxamide] | + (+ >3 and <5)
COc1ccc(-c2noc(N3CCC(C(=O)NCC4CCN(Cc5ccco5)C4)CC3)n2)cc1 (stereo not drawn) [Compound 320, N-((1-(furan-2-ylmethyl)pyrrolidin-3-yl)methyl)-1-(3-(4-methoxyphenyl)-1,2,4-oxadiazol-5-yl)piperidine-4-carboxamide] | + (+ >3 and <5)
COc1ccc(-c2noc(N3CCC(C(=O)NCC4CCN(Cc5ccccc5O)C4)CC3)n2)cc1 (stereo not drawn) [Compound 321, N-((1-(2-hydroxybenzyl)pyrrolidin-3-yl)methyl)-1-(3-(4-methoxyphenyl)-1,2,4-oxadiazol-5-yl)piperidine-4-carboxamide] | ++ (++ ≥5 and <6)
COc1ccc(-c2noc(N3CCC(C(=O)NCC4CCN(Cc5ccncc5)C4)CC3)n2)cc1 (stereo not drawn) [Compound 322, 1-(3-(4-methoxyphenyl)-1,2,4-oxadiazol-5-yl)-N-((1-(pyridin-4-ylmethyl)pyrrolidin-3-yl)methyl)piperidine-4-carboxamide] | ++ (++ ≥5 and <6)
COc1ccc(-c2noc(N3CCC(C(=O)NCC4CCN(CC5CCCC5)C4)CC3)n2)cc1 (stereo not drawn) [Compound 323, N-((1-(cyclopentylmethyl)pyrrolidin-3-yl)methyl)-1-(3-(4-methoxyphenyl)-1,2,4-oxadiazol-5-yl)piperidine-4-carboxamide] | ++ (++ ≥5 and <6)
C#Cc1cccc(CN2CCC(CNC(=O)C3CCN(c4nc(-c5ccc(OC)cc5)no4)CC3)C2)c1 (stereo not drawn) [Compound 324, N-((1-(3-ethynylbenzyl)pyrrolidin-3-yl)methyl)-1-(3-(4-methoxyphenyl)-1,2,4-oxadiazol-5-yl)piperidine-4-carboxamide] | ++ (++ ≥5 and <6)
COc1ccc(-c2noc(N3CCC(C(=O)NCC4CCN(Cc5cc[nH]c5)C4)CC3)n2)cc1 (stereo not drawn) [Compound 325, N-((1-((1H-pyrrol-3-yl)methyl)pyrrolidin-3-yl)methyl)-1-(3-(4-methoxyphenyl)-1,2,4-oxadiazol-5-yl)piperidine-4-carboxamide] | + (+ >3 and <5)
COc1ccc(-c2noc(N3CCC(C(=O)NCC4CCN(Cc5cc(C)ccn5)C4)CC3)n2)cc1 (stereo not drawn) [Compound 326, 1-(3-(4-methoxyphenyl)-1,2,4-oxadiazol-5-yl)-N-((1-((4-methylpyridin-2-yl)methyl)pyrrolidin-3-yl)methyl)piperidine-4-carboxamide] | ++ (++ ≥5 and <6)
COc1ccc(-c2noc(N3CCC(C(=O)NCC4CCN(CC(C)(C)C)C4)CC3)n2)cc1 (stereo not drawn) [Compound 327, 1-(3-(4-methoxyphenyl)-1,2,4-oxadiazol-5-yl)-N-((1-neopentylpyrrolidin-3-yl)methyl)piperidine-4-carboxamide] | + (+ >3 and <5)
